In patent US5232932A, “Method for treatment of neurodegenerative diseases” (R. J. Reynolds Tobacco Company, priority 1992, dated 1993):

How the values were obtained:
[1] = target: high affinity nicotinic receptors; experiment: Inhibition of L-[3H]nicotine binding to mouse brain membrane preparations; design: species or system Mice (DBA strain); conditions: mouse brain membranes, 2 hr at 4° C., Ki calculated from IC50 by method of Cheng et al.
Method: Mice (DBA strain) were maintained on a 12 hour light/dark cycle and were allowed free access to water and food supplied by Wayne Lab Blox, Madison, WI. Animals used in the present studies were 60 to 90 days of age and weighed 20 to 25 g. Brain membrane preparations were obtained from pooled brain tissue of both males and females.
Mice were killed by cervical dislocation. Brains were removed and placed on an ice-cold platform. The cerebellum was removed and the remaining tissue was placed in 10 volumes (weight:volume) of ice-cold buffer (Krebs-RingersHEPES:NaCl, 118 mM; KCl, 4.8 mM; CaCl2, 2.5 mM; MgSO4, 1.2 mM; HEPES, 20 mM; pH to 7.5 with NaOH) and homogenized with a glass-Teflon tissue grinder. The resulting homogenate was centrifuged at 18000×g for 20 min. and the resulting pellet was resuspended in 20 volumes of water. […] Protein was determined by the method of Lowry, et al., J. Biol. Chem., Vol. 193, pp. 265-275 (1951), using bovine serum albumin as the standard.
The binding of L-[^3 H]nicotine was measured using a modification of the method of Romano, et al., Science, Vol. 210, pp. 647-650 (1980) as described previously by Marks, et al., Mol. Pharmacol., Vol. 30, pp. 427-436 (1986). The binding of L-[^3 H]nicotine was measured using a 2 hr. incubation at 4° C. […] Nonspecific binding was determined by inclusion of 10 μM nonradioactive nicotine in the incubations. […]

[2] = system: synaptosomes from the striatal area of rat brain; experiment: [3H]-dopamine release from rat striatal synaptosomes; format: biochemical, Sprague-Dawley rats; conditions: 0.2 ml of 10 μM solution of ligand; relative to equal concentration of (S)-(-)-nicotine
Method: Dopamine release was measured by preparing synaptosomes from the striatal area of rat brain obtained from Sprague-Dawley rats generally according to the procedures set forth by Nagy, et al., J. Neurochem., Vol. 43, pp. 1114-1123 (1984). Striata from 4 rats were homogenized in 2 ml of 0.32M sucrose buffered with 5 mM HEPES (pH 7.5), using a glass-teflon tissue grinder. The homogenate was diluted to 5 ml with additional homogenization solution and centrifuged at 1000×g for 10 min. This procedure was repeated on the new pellet and the resulting supernatant was centrifuged at 12,000×g for 20 min. […] Using this method, 30 to 90 percent of the dopamine was taken up into the synaptosomes, as determined by scintillation counting following filtration through glass fiber filters soaked with 0.5 percent polyethyleneimine. […] After the addition of a 0.2 ml of a 10 μM solution of ligand, the perfusate was collected into scintillation vials at 1 min. intervals and the dopamine released was quantified by scintillation counting. Peaks of radioactivity released above background were summed and the average basal release during that time was subtracted from the total. Release was expressed as a percentage of release obtained with an equal concentration of (S)-(-)-nicotine.

In the case of `CNCCCC(=O)c1cccnc1` [pseudooxynicotine], the Ki [1] is reported as 1700 nM and the “Dopamine Release, percent release relative to (S)-(-)-nicotine” value [2] is reported as 45%.
